# According to article PMC11111955, “Safety and efficacy evaluation of halicin as an effective drug for inhibiting intestinal infections” (Frontiers in Pharmacology, 2024):
# Entries after “also recorded” stand apart in the source; their conditions may differ. Like-named read-outs stand apart in the source and are kept apart here.
# How the values were obtained:
# [1] = tested on: Salmonella (CVCC 3377); test: Minimum inhibitory concentration (MIC); type: cell-based
# [2] = tested on: R. anatipestifer (ATCC 11845); test: Minimum inhibitory concentration (MIC); type: cell-based, Riemerella anatipestifer
# [3] = tested on: E. faecalis (ATCC 29212); test: Minimum inhibitory concentration (MIC); type: cell-based, Enterococcus faecalis
# Description: (§1) The test strains were inoculated on the corresponding solid medium and incubated overnight at 37°C. A single colony was picked from the medium and inoculated into Luria Broth (LB), and then incubated overnight at 37°C with shaking at 220 rpm. The bacterial suspension was diluted to 0.5 McFarland turbidity with Mueller Hinton broth (MHB), and then dilute 100 times for later use. Halicin was added to the 96-well plate, and diluted it to concentrations of 128, 64, 32, 16, 8, 4, 2, 1, 0.5, 0.25, 0.125, and 0 μg/mL by gradient. The 96-well plate was incubated at 37°C for 16 h, followed by observing and recording the results. The MIC was determined as the concentration at which there was no visible colony growth was observed.
# [4] = tested on: Salmonella (CVCC 3377); test: Growth kinetics curve; details: 1/2 × to 4 × MIC
# [5] = tested on: ICR mice; test: Acute oral toxicity test in ICR mice
# [6] = tested on: other bacteria (except Bacillus subtilis and Pseudomonas aeruginosa); test: MIC, panel of Table 1 as summarised in the text; type: cell-based; details: bacteria of Table 1 except Bacillus subtilis and Pseudomonas aeruginosa
# [7] = tested on: Salmonella typhimurium strains TA97, TA98, TA100, and WP2uvrApKM101; test: Ames test, all strains as summarised in the text
# [8] = tested on: Mouse spermatozoa; details: for Abnormal ratio (%) / Number of sperm abnormality: male ICR mice, oral; for Number of sperm abnormality: of 5 × 1,000 sperms observed
# [9] = tested on: MRSA (ATCC 43300); test: Minimum inhibitory concentration (MIC); type: cell-based, Staphylococcus aureus
# [10] = tested on: E. coli (ATCC 25922); test: Minimum inhibitory concentration (MIC); type: cell-based, Escherichia coli
# Description: as §1
# [11] = tested on: zebrafish embryos; test: Zebrafish embryonic malformation study; type: in vivo; details: up to 4 μM; 24, 48 and 72 h after fertilization
# Description: For embryonic malformation studies, groups of 20 zebrafish embryos each were treated with halicin. The concentrations of the drug were set at 4, 2, 1, and 0.5 μM, in accordance with established protocols for zebrafish embryo acute toxicity test. Observations were conducted at 24, 48, and 72 h after fertilization using a microscope. The embryonic assessment focused on six specific teratogenic endpoints: pericardial edema, yolk sac edema, cardiac malformations, morphological body shape deformities, tail deformities, and craniofacial anomalies, as well as otolith abnormalities. To minimize the impact of random variability, these experiments were performed in triplicate ([OECD, 1998]).
# [12] = tested on: Proteus (CMCC (B) 49027); test: Growth kinetics curve; type: cell-based; details: 1/2 × to 4 × MIC
# [13] = tested on: Klebsiella pneumoniae (ATCC 4352); test: Growth kinetics curve; type: cell-based; details: 1/2 × to 4 × MIC
# [14] = tested on: S. flexneri (CMCC 51572); test: Minimum inhibitory concentration (MIC); type: cell-based
# Description: as §1
# [15] = tested on: H. parasuis (ATCC 19417); test: Minimum inhibitory concentration (MIC); type: cell-based
# Description: as §1
# [16] = tested on: Streptococcus suis (ATCC 43765); test: Minimum inhibitory concentration (MIC); type: cell-based
# Description: as §1
# [17] = tested on: Proteus (CMCC (B) 49027); test: Minimum inhibitory concentration (MIC); type: cell-based
# Description: as §1
# [18] = tested on: Escherichia coli (ATCC 25922); test: Growth kinetics curve; type: cell-based
# [19] = tested on: MRSA (BNCC 337371); test: Minimum inhibitory concentration (MIC); type: cell-based, Staphylococcus aureus
# [20] = tested on: C. perfringens (ATCC 13124); type: cell-based, Clostridium perfringens
# [21] = tested on: mouse bone marrow cells; details: for Chromosome aberration (%) / Number of cells with chromosome aberration: ICR mice, oral; for Number of cells with chromosome aberration: of 5 × 100 cells at metaphase
# [22] = tested on: B. subtilis (ATCC 66333); test: Minimum inhibitory concentration (MIC); type: cell-based, Bacillus subtilis
# Description: as §1
# [23] = tested on: clinical isolates of C. perfringens strains; type: cell-based, Clostridium perfringens
smiles,measurement,setting,value
Nc1nnc(Sc2ncc([N+](=O)[O-])s2)s1 [halicin],MIC,[1],8 µg/mL
same,MIC,"[2]; R. anatipestife (ATCC 11845), second listing",8 µg/mL
same,MIC,"[2]; R. anatipestifer (ATCC 11845), first listing",4 µg/mL
same,MIC,[3],4 µg/mL
same,growth in growth kinetics curve assay,[4],completely inhibited
same,mortality,[5]; 500 mg/kg oral,none died
same,survival rate at 7 days,"[5]; 1,000 mg/kg oral",80%
same,7-day survival rate,"[5]; 4,000 mg/kg oral",10%
same,LD50,"[5]; ICR mice, oral gavage, 7 days observation",2018.3 mg/kg
same,acute toxicity classification,[5]; based on LD50,low-toxicity compound
same,MIC against other bacteria,[6],less than 8 μg/mL
same,bacterial counts of the four strains,"[7]; 22.5 μg/plate, due to antibacterial effect",significantly decreased
same,mutagenicity in the Ames test,"[7]; concentrations below 11.2 μg/plate, with or without S9",non-mutagenic
same,proportions of abnormal sperm compared with the negative control group,"[8]; 1009.1, 504.6 and 252.3 mg/kg, p > 0.05",not significantly different
same,Abnormal sperms counted ratio (%): Amorphous,[8]; High-dose (1009.1) mg/kg,23.6 ± 12.44%
same,Abnormal sperms counted ratio (%): Banana shape,[8]; High-dose (1009.1) mg/kg,42.52 ± 12.57%
same,Abnormal sperms counted ratio (%): Kinks tail,[8]; High-dose (1009.1) mg/kg,3.05 ± 2.79%
same,Abnormal sperms counted ratio (%): Large round head,[8]; High-dose (1009.1) mg/kg,9.07 ± 4.02%
same,Abnormal sperms counted ratio (%): No hook,[8]; High-dose (1009.1) mg/kg,15.6 ± 5.5%
same,Abnormal sperms counted ratio (%): Two head,[8]; High-dose (1009.1) mg/kg,3.05 ± 2.79%
same,Abnormal sperms counted ratio (%): Two tail,[8]; High-dose (1009.1) mg/kg,3.11 ± 2.84%
same,Abnormal sperms counted ratio (%): Amorphous,[8]; Low-dose (252.3) mg/kg,39.81 ± 3%
same,Abnormal sperms counted ratio (%): Banana shape,[8]; Low-dose (252.3) mg/kg,35.98 ± 3.94%
same,Abnormal sperms counted ratio (%): Kinks tail,[8]; Low-dose (252.3) mg/kg,1.18 ± 2.63%
same,Abnormal sperms counted ratio (%): Large round head,[8]; Low-dose (252.3) mg/kg,3.92 ± 3.58%
same,Abnormal sperms counted ratio (%): No hook,[8]; Low-dose (252.3) mg/kg,16.61 ± 3.11%
same,Abnormal sperms counted ratio (%): Two head,[8]; Low-dose (252.3) mg/kg,1.33 ± 2.98%
same,Abnormal sperms counted ratio (%): Two tail,[8]; Low-dose (252.3) mg/kg,1.18 ± 2.63%
same,Abnormal sperms counted ratio (%): Amorphous,[8]; Medium-dose (504.6) mg/kg,29.69 ± 2.67%
same,Abnormal sperms counted ratio (%): Banana shape,[8]; Medium-dose (504.6) mg/kg,35.81 ± 4.52%
same,Abnormal sperms counted ratio (%): Kinks tail,[8]; Medium-dose (504.6) mg/kg,2.44 ± 3.37%
same,Abnormal sperms counted ratio (%): Large round head,[8]; Medium-dose (504.6) mg/kg,11.96 ± 0.96%
same,Abnormal sperms counted ratio (%): No hook,[8]; Medium-dose (504.6) mg/kg,16.7 ± 2.71%
same,Abnormal sperms counted ratio (%): Two head,[8]; Medium-dose (504.6) mg/kg,2.22 ± 3.04%
same,Abnormal sperms counted ratio (%): Two tail,[8]; Medium-dose (504.6) mg/kg,1.18 ± 2.63%
same,Abnormal ratio (%),[8]; High-dose (1009.1) mg/kg,2.12 ± 0.38%
same,Number of sperm abnormality,[8]; High-dose (1009.1) mg/kg,110
same,Abnormal ratio (%),[8]; Low-dose (252.3) mg/kg,1.56 ± 0.09%
same,Number of sperm abnormality,[8]; Low-dose (252.3) mg/kg,78
same,Abnormal ratio (%),[8]; Medium-dose (504.6) mg/kg,1.68 ± 0.13%
same,Number of sperm abnormality,[8]; Medium-dose (504.6) mg/kg,84
same,MIC,[9],8 µg/mL
same,MIC,[10],8 µg/mL
same,teratogenic effects on the embryos,[11],no significant teratogenicity; also recorded: no any significant teratogenic effects
same,growth in growth kinetics curve assay,[12],completely inhibited
same,growth in growth kinetics curve assay,[13],completely inhibited
same,MIC,[14],8 µg/mL
same,MIC,[15],8 µg/mL
same,MIC,[16],4 µg/mL
same,MIC,[17],8 µg/mL
same,growth in growth kinetics curve assay,"[18]; 1/2 × MIC, E. coli (ATCC 25922)",significantly inhibited during the initial 16 h
same,growth in growth kinetics curve assay,"[18]; 4 × MIC, after 20 h",still proliferated significantly
same,MIC,[19],8 µg/mL
same,MIC,[20],8 µg/mL
same,teratogenic effect on bone marrow cells,"[21]; 252.3 mg/kg to 1009.1 mg/kg, p > 0.05 vs negative control",no significant teratogenic effect
same,Chromosome aberration (%),[21]; High-does (1009.1) mg/kg,1.4 ± 0.55%
same,Number of cells with chromosome aberration,[21]; High-does (1009.1) mg/kg,7
same,Chromosome aberration (%),[21]; Low-does (252.3) mg/kg,1.4 ± 1.14%
same,Number of cells with chromosome aberration,[21]; Low-does (252.3) mg/kg,7
same,Chromosome aberration (%),[21]; Medium-does (504.6) mg/kg,1.6 ± 0.89%
same,Number of cells with chromosome aberration,[21]; Medium-does (504.6) mg/kg,8
same,MIC,[22],128 µg/mL
same,MIC,"[23]; clinical isolate S049, Clostridium perfringens Cp001",4 µg/mL
same,MIC,"[23]; clinical isolate S050, Clostridium perfringens Cp002",4 µg/mL
same,MIC,"[23]; clinical isolate S051, Clostridium perfringens Cp003",4 µg/mL
same,MIC,"[23]; clinical isolate S052, Clostridium perfringens Cp004",8 µg/mL
same,MIC,"[23]; clinical isolate S053, Clostridium perfringens Cp005",8 µg/mL
same,MIC,"[23]; clinical isolate S054, Clostridium perfringens Cp006",8 µg/mL
same,MIC,"[23]; clinical isolate S055, Clostridium perfringens Cp007",16 µg/mL
same,MIC,"[23]; clinical isolate S056, Clostridium perfringens Cp008",0.25 µg/mL
same,MIC,"[23]; clinical isolate S057, Clostridium perfringens Cp009",0.25 µg/mL
same,MIC,"[23]; clinical isolate S058, Clostridium perfringens Cp010",0.25 µg/mL
